US20060241019A1, “Long lasting insulin derivatives and methods thereof” (priority 2003, published 2006)

Test system: Epididymal fat cells from Wistar rats
Assay: Glucose uptake in epididymal fat cells
Type: cell-based
Conditions: D-[3-3H]Glucose incorporation, rat epididymal fat cells, 2 hour incubation
Method: In addition, glucose uptake in an other source of adipocytes was used to evaluate the in vitro activity. […] The tissue (0.03 g/ml) is degraded by collagenase in modified HEPES solution pH 7.4 at 37° C. Test compound and/or vehicle is incubated with 500 μl aliquots in modified HEPES buffer pH 7.4 and D-[3-3H]Glucose (2.5 μCi/ml) is then added for 2 hour incubation. Test compound-induced the increase of glucose incorporation by more than 50 percent or more (≧50%) relative to the control 2 nM insulin response, indicates possible insulin receptor agonist activity. […] Compounds are screened at 10, 1, 0.1, 0.01 and 0.001 μM.

- EC50: 15.4 nM
Substance: (Phe B1)-MPA-(AEES)2-Insulin [Example VI]
